In the NIST ThermoML archive (doi:10.1016/j.tca.2015.03.020):

Conditions: Rate of evaporation

CCCCCCCCCCCC [dodecane]
Liquid
Conditions | vapor or sublimation pressure [kPa]
284.15 K | 0.00421
289.15 K | 0.00646
294.15 K | 0.00978
299.15 K | 0.0146
304.15 K | 0.0215
309.15 K | 0.0312
314.15 K | 0.0449
319.15 K | 0.0638
324.15 K | 0.0897
329.15 K | 0.125
334.15 K | 0.172
339.15 K | 0.234
344.15 K | 0.317
349.15 K | 0.425
354.15 K | 0.565
359.15 K | 0.746
364.15 K | 0.976
369.15 K | 1.27
374.15 K | 1.64
379.15 K | 2.1
384.15 K | 2.67
389.15 K | 3.38
394.15 K | 4.25
399.15 K | 5.32
404.15 K | 6.62
409.15 K | 8.19
414.15 K | 10.1
419.15 K | 12.4
424.15 K | 15.1
429.15 K | 18.3
434.15 K | 22.1
439.15 K | 26.6
444.15 K | 31.8
449.15 K | 38
454.15 K | 45.1
459.15 K | 53.4
464.15 K | 63
469.15 K | 74.1
474.15 K | 86.8
479.15 K | 101
484.15 K | 118
489.15 K | 137
494.15 K | 158
499.15 K | 183
504.15 K | 210
509.15 K | 241

CCCCCCCCCCCCCCCC [hexadecane]
Liquid
Conditions | vapor or sublimation pressure [kPa]
284.15 K | 6.01e-05
289.15 K | 0.000102
294.15 K | 0.000168
299.15 K | 0.000274
304.15 K | 0.00044
309.15 K | 0.000696
314.15 K | 0.00108
319.15 K | 0.00166
324.15 K | 0.00252
329.15 K | 0.00377
334.15 K | 0.00558
339.15 K | 0.00816
344.15 K | 0.0118
349.15 K | 0.0169
354.15 K | 0.0239
359.15 K | 0.0335
364.15 K | 0.0465
369.15 K | 0.0641
374.15 K | 0.0875
379.15 K | 0.119
384.15 K | 0.159
389.15 K | 0.212
394.15 K | 0.281
399.15 K | 0.369
404.15 K | 0.482
409.15 K | 0.626
414.15 K | 0.806
419.15 K | 1.03
424.15 K | 1.32
429.15 K | 1.67
434.15 K | 2.1
439.15 K | 2.63
444.15 K | 3.28
449.15 K | 4.07
454.15 K | 5.02
459.15 K | 6.18
464.15 K | 7.56
469.15 K | 9.21
474.15 K | 11.2
479.15 K | 13.5
484.15 K | 16.3
489.15 K | 19.5
494.15 K | 23.3
499.15 K | 27.7
504.15 K | 32.9
509.15 K | 38.9

CCn1cc[n+](C)c1.O=S(=O)([N-]S(=O)(=O)C(F)(F)F)C(F)(F)F
Liquid
Conditions | vapor or sublimation pressure [kPa]
363.13 K | 1.75e-09
368.13 K | 2.95e-09
373.13 K | 4.91e-09
378.13 K | 8.06e-09
383.13 K | 1.31e-08
388.13 K | 2.09e-08
393.13 K | 3.31e-08
398.13 K | 5.18e-08
403.13 K | 8.01e-08
408.13 K | 1.23e-07
413.13 K | 1.86e-07
418.13 K | 2.78e-07
423.13 K | 4.14e-07
428.13 K | 6.09e-07
433.13 K | 8.88e-07
438.13 K | 1.28e-06
443.13 K | 1.84e-06
448.13 K | 2.62e-06
453.13 K | 3.7e-06
458.13 K | 5.18e-06
463.13 K | 7.2e-06
468.13 K | 9.95e-06
473.13 K | 1.36e-05
538.13 K | 0.00129
543.13 K | 0.00168
548.13 K | 0.00216
553.13 K | 0.00277
558.13 K | 0.00355
563.13 K | 0.00451
568.13 K | 0.00572
573.13 K | 0.00722
578.13 K | 0.00907
583.13 K | 0.0114
588.13 K | 0.0142
593.13 K | 0.0176
598.13 K | 0.0218
603.13 K | 0.0269
608.13 K | 0.0331
613.13 K | 0.0405
618.13 K | 0.0495
623.13 K | 0.0602
628.13 K | 0.0731
633.13 K | 0.0885
638.13 K | 0.107
643.13 K | 0.128
648.13 K | 0.154
653.13 K | 0.184
658.13 K | 0.22
663.13 K | 0.261
668.13 K | 0.31
673.13 K | 0.367
678.13 K | 0.433
683.13 K | 0.51
688.13 K | 0.599
693.13 K | 0.703
698.13 K | 0.822
703.13 K | 0.959
708.13 K | 1.12
713.13 K | 1.3
718.13 K | 1.5
723.13 K | 1.74

c1ccc2cc3ccccc3cc2c1 [anthracene]
Crystal
Conditions | vapor or sublimation pressure [kPa]
284.15 K | 1.79e-07
289.15 K | 3.52e-07
294.15 K | 6.77e-07
299.15 K | 1.27e-06
304.15 K | 2.35e-06
309.15 K | 4.25e-06
314.15 K | 7.54e-06
319.15 K | 1.31e-05
324.15 K | 2.25e-05
329.15 K | 3.79e-05
334.15 K | 6.29e-05
339.15 K | 0.000103
344.15 K | 0.000166
349.15 K | 0.000263
354.15 K | 0.000413
359.15 K | 0.00064
364.15 K | 0.000979
369.15 K | 0.00148
374.15 K | 0.00222
379.15 K | 0.00328
384.15 K | 0.00481
389.15 K | 0.00698
394.15 K | 0.01
399.15 K | 0.0143
404.15 K | 0.0202
409.15 K | 0.0283
414.15 K | 0.0393
419.15 K | 0.0541
424.15 K | 0.0741
429.15 K | 0.101
434.15 K | 0.136
439.15 K | 0.182
444.15 K | 0.242
449.15 K | 0.319
454.15 K | 0.42
459.15 K | 0.548
464.15 K | 0.712
469.15 K | 0.919
474.15 K | 1.18
479.15 K | 1.51
484.15 K | 1.92
489.15 K | 2.42
494.15 K | 3.05
499.15 K | 3.83
504.15 K | 4.77
509.15 K | 5.93

CCn1cc[n+](C)c1.COS(=O)(=O)[O-] [1-ethyl-3-methylimidazolium methylsulfate]
Liquid
Conditions | vapor or sublimation pressure [kPa]
408.15 K | 6.75e-09
410.15 K | 8.27e-09
413.15 K | 1.12e-08
416.15 K | 1.5e-08
420.15 K | 2.21e-08
424.15 K | 3.24e-08
428.15 K | 4.7e-08
432.15 K | 6.79e-08
436.15 K | 9.72e-08
440.15 K | 1.38e-07
444.15 K | 1.96e-07
448.15 K | 2.75e-07
